Assay results: PubChem BioAssay (NCI)
Several values for one entry are separate records, joined by “and”; a condition that tells them apart may be missing. Identical values can stand only once.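 Tested at 5 concentrations; 48 h exposure; 96-well plates; endpoints linearly interpolated, else capped at highest concentration. GI50 marks 50% less growth. Definition used: TGI = concentration required for complete inhibition of growth.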

How the values were obtained:
Experiment in all cases: inhibition of tumour cell growth, NCI panel, 48 h
[1] = system: HS 578T breast
[2] = system: PC-3 prostate
[3] = system: NCI-H226 lung
[4] = system: NCI-H460 lung
[5] = system: MDA-MB-435
[6] = system: A549 NSCLC
[7] = system: HCC-2998 colon
[8] = system: BT-549 breast
[9] = system: CAKI-1 renal
[10] = system: SR leukemia

| SMILES | TGI [1] [µM] | TGI [2] [µM] | TGI [3] | TGI [4] [µM] | TGI [5] [µM] | TGI [6] | TGI [7] | TGI [8] [µM] | TGI [9] [µM] | TGI [10] [µM] | GI50 [2] [µM] | GI50 [3] [µM] | GI50 [4] [µM] | GI50 [5] [µM] | GI50 [6] [µM] | GI50 [9] [µM] | GI50 [10] [µM] |
| --- | --- | --- | --- | --- | --- | --- | --- | --- | --- | --- | --- | --- | --- | --- | --- | --- | --- |
| O=C(NC1(C(=O)NNc2nnc(-c3ccccc3)c(-c3ccccc3)n2)C(c2ccccc2)C(c2ccccc2)=NN1c1ccccc1)c1ccccc1 (configuration not stated) | > 100 | > 100 | > 100 µM | > 100 | > 100 | > 100 µM | > 100 µM | > 100 | > 100 | > 100 |  |  |  |  |  |  |  |
| S=c1nc2[nH]c3ccc(Br)cc3c2n[nH]1 | > 100 | > 100 | > 100 µM | > 100 | 38.4 | > 100 µM | > 100 µM | > 100 | > 100 | 69.3 |  |  |  |  |  |  |  |
| C=C1C(=O)O[C@H]2C/C(C)=C/CC/C(C)=C/CC[C@@](C)(O)[C@@H](I)C[C@@H]12 | 21.5 | 21.1 | 12.2 µM | 27.2 | 23.2 | 24.8 µM | 25.6 µM | 6.62 | 22.4 | 11.8 |  |  |  |  |  |  |  |
| Cc1ccc(-n2c(O)c3c(N)n[nH]c3c(C#N)c2=O)cc1 | > 100 | > 100 | > 100 µM | > 100 | > 100 | > 100 µM | > 100 µM | > 100 | > 100 | > 100 |  |  |  |  |  |  |  |
| c1cc(C[S+]2CCCC2)ccc1C[S+]1CCCC1 | > 100 | > 100 | > 100 µM | > 100 | > 100 | > 100 µM | > 100 µM | > 100 | > 100 | > 100 |  |  |  |  |  |  |  |
| COC(=O)c1ccc(CCc2cc(O)ccc2O)cc1 | > 39.5 | 17.5 | 38.6 µM | > 68.4 | 21.7 | > 61.3 µM | 59.6 µM | 25.6 | 12.9 | > 21 |  |  |  |  |  |  |  |
| O=C(c1ccccc1)c1c(C(F)(F)F)n([O-])c2cc(Cl)c(Cl)cc2[n+]1=O | 2.9 | 4.03 | 13.7 µM | 4.53 | 3.08 | 4.19 µM | 4.11 µM | 4.8 | 2.93 | 0.724 |  |  |  |  |  |  |  |
| COc1ccc(C(=C(I)c2ccccc2)c2ccc(OC)cc2)cc1 | > 100 | > 100 | > 100 µM | > 100 | > 100 | > 100 µM | > 100 µM | > 100 | > 100 | > 100 |  |  |  |  |  |  |  |
| Cc1cccc2nc3cccc(C(=O)NCCC[N+](C)(CCCNC(=O)c4cccc5nc6cccc(C)c6nc45)Cc4c([N+](=O)[O-])ncn4C)c3nc12 | > 1100 | > 1100 | 267 µM | 257 | > 1100 | > 1100 µM | 790 µM | > 1100 | > 1100 | > 1100 | 6.47 | 0.11 | 2.15 | 191 | 8.19 | 107 |  |
| O=c1c2ccccc2n2nnc3ccc(NCCCNCCNCCCNc4ccc5nnn6c7ccccc7c(=O)c4c56)c1c32 | 37.6 | 16.3 | 0.99 µM | 15.8 | > 50 | 20.8 µM | 6.51 µM | 18.9 | 12.8 | > 50 |  |  |  |  |  |  |  |
| O=C(/C=C/c1ccc(-c2ccccc2)cc1)NCc1ccc(C(=O)NCCc2c[nH]c3ccccc23)cc1 | > 100 | > 100 | 60.1 µM | > 100 | > 100 | 60.4 µM | > 100 µM | > 100 | 40.7 | > 100 |  |  |  |  |  |  |  |
| C=CC(C)(C)N[C@@H](C(=O)N1CCC[C@H]1c1nc(-c2nc(C(=O)OCC=C(C)C)c(C)o2)c(C)o1)C(C)C | 40.2 | > 100 | 35.6 µM | 51.1 | 39.8 | > 100 µM | 36 µM | 46.2 | > 100 | 40.6 |  |  |  |  |  |  |  |
| CCCC(CC)c1c(O)c(O)c(C(CC)CCC)c(C(CC)CCC)c1C(CC)CCC (configuration not stated) | > 10 | > 10 | > 10 µM | > 10 | > 10 | > 10 µM | > 10 µM | > 10 | > 10 | > 10 |  |  |  |  |  |  |  |
| COCN1CCN=c2c1c1c3c(c4ccccc4n23)CCC1 | > 100 | > 100 | > 100 µM | > 100 | > 100 | > 100 µM | > 100 µM | > 100 | > 100 | > 100 |  |  |  |  |  |  |  |
| O=c1[nH]c2ccccc2nc1/C=C(\O)C(F)F | > 100 | > 100 | > 100 µM | > 100 | > 100 | > 100 µM | > 100 µM | > 100 | > 100 | > 100 |  |  |  |  |  |  |  |
| Cc1cc(N=Cc2c(CO)cnc(C)c2O)c(N=Cc2c(CO)cnc(C)c2O)cc1C.[Zn] | > 100 | > 100 | > 100 µM | > 100 | > 100 | > 100 µM | > 100 µM | > 100 | > 100 | > 100 |  |  |  |  |  |  | > 100 |

| SMILES | TGI [1] [µM] | TGI [2] [µM] | TGI [3] | TGI [4] [µM] | TGI [5] [µM] | TGI [6] | TGI [7] | TGI [8] [µM] | TGI [9] [µM] | TGI [10] [µM] | GI50 [2] [µM] | GI50 [3] [µM] | GI50 [4] [µM] | GI50 [5] [µM] | GI50 [6] [µM] | GI50 [9] [µM] | GI50 [10] [µM] |
| --- | --- | --- | --- | --- | --- | --- | --- | --- | --- | --- | --- | --- | --- | --- | --- | --- | --- |
| CC(C)[C@H]1NC(=O)[C@H]2N=C(O[C@@H]2C)[C@@H]2CCCN2C(=O)[C@H](Cc2ccccc2)NC(=O)[C@@H]2CSC(=N2)[C@@H](Cc2ccccc2)NC(=O)[C@@H]2CSC1=N2 | > 100 | > 100 | > 100 µM |  | > 100 | > 100 µM | > 100 µM | > 100 | > 100 | > 100 |  |  |  |  |  |  |  |
| O=c1[nH]c2cc3cccnc3c(Cl)c2nc1C(F)(F)F | > 100 | > 100 | > 100 µM | > 100 | > 100 | > 100 µM | > 100 µM | 86.7 | 65.4 | > 100 |  |  |  |  |  |  |  |
| CN(C)CCCNc1c2ccccc2nc2cccc([N+](=O)[O-])c12 | 0.0148 | 0.00244 | 0.0589 µM and 0.0601 µM | 0.00781 | 0.00242 | 0.0121 µM and 0.0944 µM | 0.00194 µM and 0.0131 µM | 0.0151 |  | 0.0576 |  | 0.0196 |  |  |  | < 0.001 |  |
| N#Cc1c(N2CCCC2)ncn(Cc2ccccc2)c1=S | > 100 | > 100 | > 100 µM | > 100 | > 100 | > 100 µM | > 100 µM | > 100 | > 100 | > 100 |  |  |  |  |  |  |  |
| COc1ccc(-c2nc(-c3cc4ccccc4oc3=O)cs2)cc1 | > 100 | > 100 | > 100 µM | > 100 | > 100 | > 100 µM | > 100 µM | > 100 | > 100 | > 100 |  |  |  |  |  |  |  |
| COC(=O)c1ccccc1C#CCCCOS(C)(=O)=O | > 10 | > 10 | > 10 µM | > 10 | > 10 | > 10 µM | > 10 µM | > 10 | > 10 | > 10 |  |  |  |  |  |  |  |
| Cn1c(-c2ccc[se]2)ccc1-c1ccc(CO)[se]1 | > 100 | > 100 | 0.884 µM | 18.8 | > 67.7 | > 100 µM | 19.3 µM | > 100 | < 0.0332 | 53.5 |  |  |  |  |  |  |  |
| CC(C)(C)OC(=O)NC(Cc1ccc(O)cn1)C(N)=O (configuration not stated) | > 100 | > 100 | > 100 µM | > 100 | > 100 | > 100 µM | > 100 µM | > 100 | > 100 | > 100 |  |  |  |  |  |  |  |
| CC(C)(C)n1c(=O)n(C(=O)C(Cl)(Cl)Cl)n(C(=O)C(Cl)(Cl)Cl)c1=O | > 100 | > 100 | > 100 µM | > 100 | > 100 | > 100 µM | > 100 µM | > 100 | > 100 | > 100 |  |  |  |  |  |  |  |
| COc1ccc(/C=C(\C(=C/c2ccc(OC)cc2)[N+](=O)[O-])[N+](=O)[O-])cc1 | 43.9 | > 39.7 | 33 µM | 12.2 | 12.1 | > 61.3 µM | 30.9 µM | 21.4 | 8.87 | > 100 |  |  |  |  |  |  |  |
| Cc1ccc(C)c(COCCOCn2cc(Br)c(N)nc2=O)c1 | > 100 | > 100 | > 100 µM | > 100 | > 100 | > 100 µM | > 100 µM | > 100 | > 100 | > 100 |  |  |  |  |  |  |  |
| Cc1ccc(NC(=S)Nc2c(C)n(C)n(-c3ccccc3)c2=O)cc1 | > 100 | > 100 | > 100 µM | > 100 | > 100 | > 100 µM | > 100 µM | > 100 | > 100 | > 100 |  |  |  |  |  |  |  |
| Cc1cc(NS(=O)(=O)c2ccc(NC(=O)c3cccc4c(NNc5ccc(S(=O)(=O)N=C(N)N)cc5)c5ccccc5nc34)cc2)no1 | > 100 | > 100 | 98.5 µM | > 100 | > 100 | > 100 µM | > 100 µM | > 100 | > 100 | > 100 |  |  |  |  |  |  |  |
| N#CC(C#N)=Cc1c(O)ccc2ccccc12 | 55.5 | 33.6 | 50 µM | 36.7 | 30 | 38 µM | 33.1 µM | 32.1 | 29.1 | 13.6 |  |  |  |  |  |  |  |
| CCOC(=O)C1=C(C)C(C(=O)OC)/C(=C/c2cccc3cccnc23)C1=O (configuration not stated) | > 10 | > 10 | > 10 µM | > 10 | > 10 | > 10 µM | > 10 µM | > 10 | > 10 | > 10 |  |  |  |  |  |  |  |
| COC(=O)/C=C\C(C#N)(C#N)N=Cc1ccc(C)s1 | 43.6 | 6.72 | 31.4 µM | 40.7 | 7.65 | 33.6 µM | 32.9 µM | 12.2 | 4.78 | 8.17 |  |  |  |  |  |  |  |
